Experiments:
FLAG-FKBP12_NLS [1] = target: T1, FLAG-FKBP12_NLS (Homo sapiens, UniProt P62942); test: Anti-FLAG western blot of stably expressed nuclear FKBP12 (FLAG-FKBP12_NLS) in HEK293T cells; type: cell-based; set-up: expressed in transfected cells; host or cells: HEK293T, MDA-MB-231 and HEK293 DCAF16+/+ and DCAF16-/- clones (lentiviral pCDH-CMV-MCS-EF1-Puro); conditions: HEK293T
Excerpt: FLAG-tagged variants of FKBP12 (FLAG-FKBP12) or (2) FKBP12 with a C-terminal nuclear localization sequence (FLAG-FKBP12_NLS) were then stably expressed in HEK293T cells to provide cell models for evaluating cytosolic- and nuclear-localized E3-mediated degradation pathways, respectively.
(§1) FLAG-FKBP12 or FLAG-FKBP12_NLS lentivirus was generated by co-transfection of FLAG-FKBP12 or FLAG-FKBP12_NLS, pCMV-dR8.2 and pMD2.G into HEK 293T cells using FuGene 6 transfection reagent (Promega). Virus-containing medium were collected 48 h after transfection, filtered with […] filter, and used to transduce HEK293T and MDA-MB-231 cells in the presence of 10 μg/mL polybrene (Santa Cruz). 72 h after transduction, puromycin (2 μg/mL) was added to cells. HEK293T cells stably expressing FLAG-FKBP12 or FLAG-FKBP12_NLS were obtained after puromycin selection for 7 days. HEK293T cells stably expressing pCDH empty vector were generated in parallel as control.
shRNA lentivirus was generated by co-transfection of shRNA-containing vector, pCMV-dR8.2 and pMD2.G into HEK 293T cells using FuGene 6 transfection reagent (Promega). Virus-containing medium were collected 48 h after transfection and used to transiently transduce HEK293T cells stably expressing FLAG-FKBP12_NLS for 48 h. Lentiviral shRNAs targeting human DCAF16 or DTL were in pLKO.1 vector and purchased from Sigma. The sequences of shRNAs is described below.
(§2) Cells were collected and lysed in 1% NP-40 lysis buffer (25 mM Tris-HCl pH 7.4, 150 mM NaCl, 10% glycerol, 1% Nonidet P-40) with complete protease inhibitor cocktail (Roche). Cells were vortexed and sonicated for 5 pulses (40%, 4). The supernatant was collected after centrifugation at 16,000 g for 10 min at 4° C. Protein concentration was determined by DC assay (Bio-Rad). Protein lysate was heated at 95° C. for 5 min in 1× Laemmli sample buffer. Proteins were resolved by 12% or 14% Novex Tris-Glycine Mini Gels (Invitrogen) and transferred to polyvinylidene fluoride (PVDF) membrane (0.2 Bio-Rad). The membrane was blocked with 5% BSA in TBST buffer (0.1% Tween 20, 20 mM Tris-HCl 7.6, 150 mM NaCl) at room temperature for 1 h. The antibody was diluted with fresh 5% BSA in TBST buffer (1:10000 dilution for FLAG, HA and β-Actin, 1:1000 dilution for others) and incubated with membrane (1 h room temperature for FLAG, HA and β-Actin, overnight 4° C. for others). Membrane was washed three times with TBST buffer and incubated with secondary antibody (1:5000 dilution in 5% BSA in TBST) at room temperature for 1 h. Membrane was washed three times with TBST buffer. The chemiluminescence signal in membrane was recorded after developing in ECL or ECL plus western blotting detection reagent using CL-XPosure film (Thermo Scientific). Relative band intensities were quantified using ImageJ.

FLAG-FKBP12_NLS [2] = target: T1, FLAG-FKBP12_NLS; test: Western blot of stably expressed FLAG-FKBP12_NLS in MDA-MB-231 cells; type: cell-based; set-up: expressed in transfected cells; host or cells: HEK293T, MDA-MB-231 and HEK293 DCAF16+/+ and DCAF16-/- clones (lentiviral pCDH-CMV-MCS-EF1-Puro); conditions: 1 μM, 8 hours
Description: as §1, §2

T1 sequence (P62942 whole entry): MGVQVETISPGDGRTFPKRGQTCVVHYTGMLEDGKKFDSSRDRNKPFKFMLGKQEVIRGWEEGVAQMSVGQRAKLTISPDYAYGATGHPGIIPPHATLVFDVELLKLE

With `CCC(C)(C)C(=O)C(=O)N1CCCC[C@H]1C(=O)O[C@H](CCc1ccc(OC)c(OC)c1)c1cccc(NC(=O)CCOCCOCCNC(=O)COc2ccc3c(c2)CCCN3C(=O)CCl)c1` [KB02-SLF, (R)-1-(3-(3-(2-(2-(2-((1-(2-chloroacetyl)-1,2,3,4-tetrahydroquinolin-6-yl)oxy)acetamido)ethoxy)ethoxy)propanamido)phenyl)-3-(3,4-dimethoxyphenyl)propyl (S)-1-(3,3-dimethyl-2-oxopentanoyl)piperidine-2-carboxylate] the “concentration for degradation of FKBP12_NLS” value (FLAG-FKBP12_NLS [1]) was 0.5 to 2 µM, the “nuclear FKBP12 (FKBP12_NLS) protein level” value (FLAG-FKBP12_NLS [1]; 2 μM, 8 or 24 h) was “substantial reduction in nuclear FKBP12” and the “KB02-SLF-mediated degradation of FKBP12_NLS after shRNA knockdown of DCAF16” value (FLAG-FKBP12_NLS [1]; KB02-SLF 2 μM, 8 h) was “substantially prevented KB02-SLF-mediated degradation of FKBP12_NLS”. The “KB02-SLF-mediated degradation of FKBP12_NLS after shRNA knockdown of DTL” value (FLAG-FKBP12_NLS [1]; KB02-SLF 2 μM, 8 h) was “not DTL”, the “time frame across which the reduction in nuclear FKBP12 was sustained” value (FLAG-FKBP12_NLS [1]; KB02-SLF, FIG. 5A) was 4 to 72 h and the “concentration across which loss of FKBP12_NLS was promoted” value (FLAG-FKBP12_NLS [1]; reductions in activity at higher concentrations, in µM) was 0.5-5. The “degradation of FLAG-FKBP12_NLS in MDA-MB-231 cells” value (FLAG-FKBP12_NLS [2]) was “degrades FLAG-FKBP12_NLS”.

Reference: US11691984B2, “Compounds and methods for DCAF-mediated protein degradation” (The Scripps Research Institute, priority 2018, dated 2023)
